Data published in ChEMBL document CHEMBL1649138, “In vitro activity of Isavuconazole against Aspergillus species and zygomycetes according to the methodology of the European Committee on Antimicrobial Susceptibility Testing” (Antimicrob Agents Chemother, 2009).
Values after ≈ are worked out from the molar mass of the structure shown.

How the values were obtained:
Rhizopus [1] = assay: Antifungal activity against Rhizopus hyphae by EUCAST method; type: functional
Aspergillus niger [2] = assay: Antifungal activity against Aspergillus niger hyphae by EUCAST method; type: functional
Aspergillus fumigatus [3] = assay: Antifungal activity against Aspergillus fumigatus by EUCAST method; type: functional
Aspergillus fumigatus [4] = assay: Antifungal activity against Aspergillus fumigatus by broth microdilution method; type: functional
Aspergillus niger [5] = assay: Antifungal activity against Aspergillus niger by EUCAST method; type: functional
Aspergillus flavus [6] = assay: Fungicidal activity against Aspergillus flavus; type: functional
Mucor [7] = assay: Fungicidal activity against Mucor; type: functional
Aspergillus fumigatus [8] = assay: Antifungal activity against Aspergillus fumigatus hyphae by EUCAST method; type: functional
Aspergillus terreus [9] = assay: Antifungal activity against amphotericin B-resistant Aspergillus terreus hyphae by EUCAST method; type: functional
Absidia [10] = assay: Antifungal activity against Absidia by EUCAST method; type: functional
Rhizomucor [11] = assay: Fungicidal activity against Rhizomucor; type: functional
Absidia [12] = assay: Fungicidal activity against Absidia; type: functional
Aspergillus flavus [13] = assay: Antifungal activity against Aspergillus flavus hyphae by EUCAST method; type: functional
Aspergillus terreus [14] = assay: Fungicidal activity against amphotericin B-resistant Aspergillus terreus; type: functional
Aspergillus flavus [15] = assay: Antifungal activity against Aspergillus flavus by broth microdilution method; type: functional
Rhizopus [16] = assay: Fungicidal activity against Rhizopus; type: functional
Rhizomucor [17] = assay: Antifungal activity against Rhizomucor hyphae by EUCAST method; type: functional
Aspergillus terreus [18] = assay: Antifungal activity against amphotericin B-resistant Aspergillus terreus by broth microdilution method; type: functional
Cunninghamella [19] = assay: Fungicidal activity against Cunninghamella; type: functional
Cunninghamella [20] = assay: Antifungal activity against Cunninghamella hyphae by EUCAST method; type: functional
Absidia [21] = assay: Antifungal activity against Absidia hyphae by EUCAST method; type: functional
Rhizomucor [22] = assay: Antifungal activity against Rhizomucor by EUCAST method; type: functional
Aspergillus niger [23] = assay: Fungicidal activity against Aspergillus niger; type: functional
Plasma = assay: Plasma concentration in human; type: ADME, cell-free
Mucor [24] = assay: Antifungal activity against Mucor by EUCAST method; type: functional
Aspergillus terreus [25] = assay: Antifungal activity against amphotericin B-resistant Aspergillus terreus by EUCAST method; type: functional
Aspergillus niger [26] = assay: Antifungal activity against Aspergillus niger by broth microdilution method; type: functional
Mucor [27] = assay: Antifungal activity against Mucor hyphae by EUCAST method; type: functional
Aspergillus fumigatus [28] = assay: Fungicidal activity against Aspergillus fumigatus; type: functional
Cunninghamella [29] = assay: Antifungal activity against Cunninghamella by EUCAST method; type: functional
Rhizopus [30] = assay: Antifungal activity against Rhizopus by EUCAST method; type: functional
Aspergillus flavus [31] = assay: Antifungal activity against Aspergillus flavus by EUCAST method; type: functional

Q: Which results are given for `C[C@@H](c1nc(-c2ccc(C#N)cc2)cs1)[C@](O)(Cn1cncn1)c1cc(F)ccc1F` [ISAVUCONAZOLE]?
A: MIC90 (Rhizopus [1]): > 8 µg/mL; MIC90 (Aspergillus niger [2]): 8 µg/mL (≈ 18.3 µM); MIC50 (Aspergillus fumigatus [3]): 1 µg/mL (≈ 2.29 µM); MIC90 (Aspergillus fumigatus [3]): 1 µg/mL (≈ 2.29 µM); MIC (Aspergillus fumigatus [4]): 0.63 µg/mL (≈ 1.44 µM); MIC50 (Aspergillus niger [5]): 2 µg/mL (≈ 4.57 µM); MIC90 (Aspergillus niger [5]): 4 µg/mL (≈ 9.14 µM); MIC90 (Aspergillus flavus [6]): 2 µg/mL (≈ 4.57 µM); MIC90 (Mucor [7]): > 8 µg/mL; MIC90 (Aspergillus fumigatus [8]): 1 µg/mL (≈ 2.29 µM); MIC90 (Aspergillus terreus [9]): 2 µg/mL (≈ 4.57 µM); MIC50 (Absidia [10]): 4 µg/mL (≈ 9.14 µM); MIC90 (Absidia [10]): > 8 µg/mL; MIC90 (Rhizomucor [11]): > 8 µg/mL; MIC90 (Absidia [12]): > 8 µg/mL; MIC90 (Aspergillus flavus [13]): 2 µg/mL (≈ 4.57 µM); MIC90 (Aspergillus terreus [14]): 2 µg/mL (≈ 4.57 µM); MIC (Aspergillus flavus [15]): 0.76 µg/mL (≈ 1.74 µM); MIC90 (Rhizopus [16]): > 8 µg/mL; MIC90 (Rhizomucor [17]): > 8 µg/mL; MIC (Aspergillus terreus [18]): 0.68 µg/mL (≈ 1.55 µM); MIC90 (Cunninghamella [19]): > 8 µg/mL; MIC90 (Cunninghamella [20]): > 8 µg/mL; MIC90 (Absidia [21]): > 8 µg/mL; MIC50 (Rhizomucor [22]): > 8 µg/mL; MIC90 (Rhizomucor [22]): > 8 µg/mL; MIC90 (Aspergillus niger [23]): > 8 µg/mL; Cp (Plasma): > 1.7 mg/L; MIC50 (Mucor [24]): > 8 µg/mL; MIC90 (Mucor [24]): > 8 µg/mL; MIC50 (Aspergillus terreus [25]): 0.5 µg/mL (≈ 1.14 µM); MIC90 (Aspergillus terreus [25]): 2 µg/mL (≈ 4.57 µM); MIC (Aspergillus niger [26]): 2.36 µg/mL (≈ 5.39 µM); MIC90 (Mucor [27]): > 8 µg/mL; MIC (Aspergillus fumigatus [28]): 1 µg/mL (≈ 2.29 µM); MIC90 (Aspergillus fumigatus [28]): 1 µg/mL (≈ 2.29 µM); MIC50 (Cunninghamella [29]): 4 µg/mL (≈ 9.14 µM); MIC90 (Cunninghamella [29]): > 8 µg/mL; MIC50 (Rhizopus [30]): 4 µg/mL (≈ 9.14 µM); MIC90 (Rhizopus [30]): > 8 µg/mL; MIC50 (Aspergillus flavus [31]): 1 µg/mL (≈ 2.29 µM); MIC90 (Aspergillus flavus [31]): 2 µg/mL (≈ 4.57 µM)

Q: With `CC[C@@H]([C@H](C)O)n1ncn(-c2ccc(N3CCN(c4ccc(OC[C@@H]5CO[C@@](Cn6cncn6)(c6ccc(F)cc6F)C5)cc4)CC3)cc2)c1=O` [POSACONAZOLE] as the compound, how does the MIC90 (Rhizopus [1]) read?
A: > 8 µg/mL

Q: What about the MIC (Aspergillus niger [2]) of the same compound?
A: 1 µg/mL (≈ 1.43 µM)

Q: And the MIC90 (Aspergillus niger [2])?
A: 1 µg/mL (≈ 1.43 µM)

Q: And the MIC50 (Aspergillus fumigatus [3])?
A: 0.5 µg/mL (≈ 0.713 µM)

Q: And the MIC90 (Aspergillus fumigatus [3])?
A: 1 µg/mL (≈ 1.43 µM)

Q: And the MIC (Aspergillus niger [5])?
A: 0.25 µg/mL (≈ 0.357 µM)

Q: And the MIC50 (Aspergillus niger [5])?
A: 0.25 µg/mL (≈ 0.357 µM)

Q: And the MIC90 (Aspergillus niger [5])?
A: 0.5 µg/mL (≈ 0.713 µM)

Q: And the MIC90 (Aspergillus flavus [6])?
A: 2 µg/mL (≈ 2.85 µM)

Q: And the MIC90 (Mucor [7])?
A: > 8 µg/mL

Q: What about the MIC90 (Aspergillus fumigatus [8]) of the same compound?
A: 0.5 µg/mL (≈ 0.713 µM)

Q: And the MIC90 (Aspergillus terreus [9])?
A: 1 µg/mL (≈ 1.43 µM)

Q: What about the MIC (Absidia [10]) of the same compound?
A: 0.5 µg/mL (≈ 0.713 µM)

Q: And the MIC50 (Absidia [10])?
A: 0.5 µg/mL (≈ 0.713 µM)

Q: And the MIC90 (Absidia [10])?
A: 1 µg/mL (≈ 1.43 µM)

Q: What about the MIC90 (Rhizomucor [11]) of the same compound?
A: > 8 µg/mL

Q: And the MIC (Absidia [12])?
A: 4 µg/mL (≈ 5.71 µM)

Q: What about the MIC90 (Absidia [12]) of the same compound?
A: 4 µg/mL (≈ 5.71 µM)

Q: And the MIC90 (Aspergillus flavus [13])?
A: 1 µg/mL (≈ 1.43 µM)

Q: What about the MIC90 (Aspergillus terreus [14]) of the same compound?
A: 2 µg/mL (≈ 2.85 µM)

Q: What about the MIC90 (Rhizopus [16]) of the same compound?
A: > 8 µg/mL

Q: What about the MIC90 (Rhizomucor [17]) of the same compound?
A: 8 µg/mL (≈ 11.4 µM)

Q: And the MIC (Cunninghamella [19])?
A: > 8 µg/mL

Q: And the MIC90 (Cunninghamella [19])?
A: 8 µg/mL (≈ 11.4 µM)

Q: And the MIC90 (Cunninghamella [20])?
A: 8 µg/mL (≈ 11.4 µM)

Q: What about the MIC (Absidia [21]) of the same compound?
A: 4 µg/mL (≈ 5.71 µM)

Q: What about the MIC90 (Absidia [21]) of the same compound?
A: 4 µg/mL (≈ 5.71 µM)

Q: And the MIC (Rhizomucor [22])?
A: 1 µg/mL (≈ 1.43 µM)

Q: And the MIC50 (Rhizomucor [22])?
A: 1 µg/mL (≈ 1.43 µM)

Q: And the MIC90 (Rhizomucor [22])?
A: 4 µg/mL (≈ 5.71 µM)

Q: What about the MIC90 (Aspergillus niger [23]) of the same compound?
A: 4 µg/mL (≈ 5.71 µM)

Q: And the MIC50 (Mucor [24])?
A: 1 µg/mL (≈ 1.43 µM)

Q: What about the MIC90 (Mucor [24]) of the same compound?
A: 1 µg/mL (≈ 1.43 µM)

Q: And the MIC (Aspergillus terreus [25])?
A: 0.125 µg/mL (≈ 0.178 µM)

Q: And the MIC50 (Aspergillus terreus [25])?
A: 0.125 µg/mL (≈ 0.178 µM)

Q: And the MIC90 (Aspergillus terreus [25])?
A: 0.5 µg/mL (≈ 0.713 µM)

Q: And the MIC90 (Mucor [27])?
A: > 8 µg/mL

Q: And the MIC90 (Aspergillus fumigatus [28])?
A: 2 µg/mL (≈ 2.85 µM)

Q: What about the MIC (Cunninghamella [29]) of the same compound?
A: 1 µg/mL (≈ 1.43 µM)

Q: What about the MIC50 (Cunninghamella [29]) of the same compound?
A: 1 µg/mL (≈ 1.43 µM)

Q: What about the MIC90 (Cunninghamella [29]) of the same compound?
A: 1 µg/mL (≈ 1.43 µM)

Q: What about the MIC50 (Rhizopus [30]) of the same compound?
A: 2 µg/mL (≈ 2.85 µM)

Q: And the MIC90 (Rhizopus [30])?
A: 4 µg/mL (≈ 5.71 µM)

Q: And the MIC50 (Aspergillus flavus [31])?
A: 0.125 µg/mL (≈ 0.178 µM)

Q: What about the MIC90 (Aspergillus flavus [31]) of the same compound?
A: 0.5 µg/mL (≈ 0.713 µM)

Q: Which results are given for `C[C@@H](c1ncncc1F)[C@](O)(Cn1cncn1)c1ccc(F)cc1F` [VORICONAZOLE]?
A: MIC (Rhizopus [1]): > 8 µg/mL; MIC90 (Rhizopus [1]): > 8 µg/mL; MIC90 (Aspergillus niger [2]): 4 µg/mL (≈ 11.5 µM); MIC50 (Aspergillus fumigatus [3]): 1 µg/mL (≈ 2.86 µM); MIC90 (Aspergillus fumigatus [3]): 1 µg/mL (≈ 2.86 µM); MIC50 (Aspergillus niger [5]): 2 µg/mL (≈ 5.73 µM); MIC90 (Aspergillus niger [5]): 2 µg/mL (≈ 5.73 µM); MIC90 (Aspergillus flavus [6]): 4 µg/mL (≈ 11.5 µM); MIC (Mucor [7]): > 8 µg/mL; MIC90 (Mucor [7]): > 8 µg/mL; MIC90 (Aspergillus fumigatus [8]): 1 µg/mL (≈ 2.86 µM); MIC90 (Aspergillus terreus [9]): 1 µg/mL (≈ 2.86 µM); MIC (Absidia [10]): > 8 µg/mL; MIC50 (Absidia [10]): > 8 µg/mL; MIC90 (Absidia [10]): > 8 µg/mL; MIC (Rhizomucor [11]): > 8 µg/mL; MIC90 (Rhizomucor [11]): > 8 µg/mL; MIC (Absidia [12]): > 8 µg/mL; MIC90 (Absidia [12]): > 8 µg/mL; MIC90 (Aspergillus flavus [13]): 2 µg/mL (≈ 5.73 µM); MIC90 (Aspergillus terreus [14]): 2 µg/mL (≈ 5.73 µM); MIC (Rhizopus [16]): > 8 µg/mL; MIC90 (Rhizopus [16]): > 8 µg/mL; MIC (Rhizomucor [17]): > 8 µg/mL; MIC90 (Rhizomucor [17]): > 8 µg/mL; MIC (Cunninghamella [19]): > 8 µg/mL; MIC90 (Cunninghamella [19]): > 8 µg/mL; MIC (Cunninghamella [20]): > 8 µg/mL; MIC90 (Cunninghamella [20]): > 8 µg/mL; MIC (Absidia [21]): > 8 µg/mL; MIC90 (Absidia [21]): > 8 µg/mL; MIC (Rhizomucor [22]): > 8 µg/mL; MIC50 (Rhizomucor [22]): > 8 µg/mL; MIC90 (Rhizomucor [22]): > 8 µg/mL; MIC90 (Aspergillus niger [23]): 8 µg/mL (≈ 22.9 µM); MIC (Mucor [24]): > 8 µg/mL; MIC50 (Mucor [24]): > 8 µg/mL; MIC90 (Mucor [24]): > 8 µg/mL; MIC50 (Aspergillus terreus [25]): 0.5 µg/mL (≈ 1.43 µM); MIC90 (Aspergillus terreus [25]): 2 µg/mL (≈ 5.73 µM); MIC (Mucor [27]): > 8 µg/mL; MIC90 (Mucor [27]): > 8 µg/mL; MIC90 (Aspergillus fumigatus [28]): 4 µg/mL (≈ 11.5 µM); MIC (Cunninghamella [29]): > 8 µg/mL; MIC50 (Cunninghamella [29]): > 8 µg/mL; MIC90 (Cunninghamella [29]): > 8 µg/mL; MIC (Rhizopus [30]): > 8 µg/mL; MIC50 (Rhizopus [30]): > 8 µg/mL; MIC90 (Rhizopus [30]): > 8 µg/mL; MIC50 (Aspergillus flavus [31]): 1 µg/mL (≈ 2.86 µM); MIC90 (Aspergillus flavus [31]): 1 µg/mL (≈ 2.86 µM)
